Active and inactive are the calls of the source. No cut-off for these calls is given here.
Key:
SW-620 = experiment: Cytotoxicity against human SW620 cells assessed as reduction in cell viability upto 30 uM incubated for 48 hrs by MTT assay; type: cell-based; conditions: sw-620, 48 h
Escherichia coli [1] = experiment: Antibacterial activity against Escherichia coli KUW-kw-AmH-11 assessed as reduction in […] growth at 0.01 to 30 uM incubated for 24 hrs by spectrophotometry based broth microdilution assay; type: functional, organism-based
Klebsiella pneumoniae [2] = experiment: Antibacterial activity against OXA-48-producing Klebsiella pneumoniae SA-Rd-KAMC-014 assessed as reduction in […] growth at 0.01 to 30 uM incubated for 24 hrs by spectrophotometry based broth microdilution assay; type: functional, organism-based
Klebsiella pneumoniae [3] = experiment: Antibacterial activity against NDM-producing Klebsiella pneumoniae SA-Rd-KAMC-037 assessed as reduction in […] growth at 0.01 to 30 uM incubated for 24 hrs by spectrophotometry based broth microdilution assay; type: functional, organism-based
Staphylococcus aureus [4] = experiment: Antibacterial activity against Staphylococcus aureus ATCC 9144 assessed as reduction in […] growth at 0.01 to 30 uM incubated for 24 hrs by spectrophotometry based broth microdilution assay; type: functional, organism-based
Pseudomonas aeruginosa [5] = experiment: Antibacterial activity against VIM producing Pseudomonas aeruginosa SA-EP-KFUH-40 assessed as reduction in […] growth at 0.01 to 30 uM incubated for 24 hrs by spectrophotometry based broth microdilution assay; type: functional, organism-based
Acinetobacter baumannii = experiment: Antibacterial activity against OXA-23-producing Acinetobacter baumannii SA-Rd-KAMC-083 assessed as reduction in […] growth at 0.01 to 30 uM incubated for 24 hrs by spectrophotometry based broth microdilution assay; type: functional, organism-based
Staphylococcus aureus [6] = experiment: Antibacterial activity against methicillin-resistant Staphylococcus aureus AUS-RBWH-MRSA-02 assessed as reduction in […] growth at 0.01 to 30 uM incubated for 24 hrs by spectrophotometry based broth microdilution assay; type: functional, organism-based
Streptococcus pyogenes = experiment: Antibacterial activity against Streptococcus pyogenes ATCC 12344 assessed as reduction in […] growth at 0.01 to 30 uM incubated for 24 hrs by spectrophotometry based broth microdilution assay; type: functional, organism-based
Candida albicans = experiment: Antifungal activity against Candida albicans ATCC 90028 assessed as reduction in fungal growth at 0.01 to 30 uM incubated for 24 hrs by spectrophotometry based broth microdilution assay; type: functional, organism-based
Pseudomonas aeruginosa [7] = experiment: Antibacterial activity against IMP producing Pseudomonas aeruginosa UAE-DBI-ZMH-91 assessed as reduction in […] growth at 0.01 to 30 uM incubated for 24 hrs by spectrophotometry based broth microdilution assay; type: functional, organism-based
Escherichia coli [8] = experiment: Antibacterial activity against Escherichia coli ATCC 11775 assessed as reduction in […] growth at 0.01 to 30 uM incubated for 24 hrs by spectrophotometry based broth microdilution assay; type: functional, organism-based
NCI-H460 = experiment: Cytotoxicity against human NCI-H460 cells assessed as reduction in cell viability upto 30 uM incubated for 48 hrs by MTT assay; type: cell-based; conditions: nci-h460, 48 h
Bacillus subtilis = experiment: Antibacterial activity against Bacillus subtilis ATCC 6633 assessed as reduction in […] growth at 0.01 to 30 uM incubated for 24 hrs by spectrophotometry based broth microdilution assay; type: functional, organism-based
Enterococcus faecalis [9] = experiment: Antibacterial activity against vancomycin-resistant Enterococcus faecalis AUS-RBWH-VRE-01 assessed as reduction in […] growth incubated for 24 hrs by spectrophotometry based broth microdilution assay; type: functional, organism-based
Enterococcus faecalis [10] = experiment: Antibacterial activity against vancomycin-resistant Enterococcus faecalis AUS-RBWH-VRE-01 assessed as fold reduction in growth by measuring colony formation unit at 30 uM incubated for 24 hrs by time kill assay; type: functional
[11] = Enterococcus faecalis, AUS-RBWH-VRE-01, 24 h, read-out: IC50

## CC(C)[C@H]1CC[C@@](O)(COC(=O)/C(=C/[C@H]2C=C(CO)CC[C@@H]2C(C)C)CO)[C@H]2C(=O)OCC(C(=O)O[C@@]34CC[C@H](C(C)C)[C@@H](/C=C(\CO)C(=O)O)[C@@H]3C(=O)OC4)=C[C@H]12
SW-620
  Activity: Non-Toxic
Escherichia coli [1]
  Activity: inactive
Klebsiella pneumoniae [2]
  Activity: inactive
Klebsiella pneumoniae [3]
  Activity: inactive
Staphylococcus aureus [4]
  Activity: inactive
Pseudomonas aeruginosa [5]
  Activity: inactive
Acinetobacter baumannii
  Activity: inactive
Staphylococcus aureus [6]
  Activity: inactive
Streptococcus pyogenes
  Activity: inactive
Candida albicans
  Activity: inactive
Pseudomonas aeruginosa [7]
  Activity: inactive
Escherichia coli [8]
  Activity: inactive
NCI-H460
  Activity: Non-Toxic
Bacillus subtilis
  Activity: inactive
Enterococcus faecalis [9]
  IC50: Not Active

## CC(C)[C@H]1CC[C@@](O)(COC(=O)/C(=C/[C@@H]2[C@@H](C(C)C)CC[C@@]3(OC(=O)/C(=C/[C@H]4C=C(CO)CC[C@@H]4C(C)C)CO)COC(=O)[C@@H]23)CO)[C@H]2C(=O)OCC(C(=O)O)=C[C@H]12
SW-620
  Activity: Non-Toxic
Escherichia coli [1]
  Activity: inactive
Klebsiella pneumoniae [2]
  Activity: inactive
Klebsiella pneumoniae [3]
  Activity: inactive
Staphylococcus aureus [4]
  Activity: inactive
Pseudomonas aeruginosa [5]
  Activity: inactive
Acinetobacter baumannii
  Activity: inactive
Staphylococcus aureus [6]
  Activity: inactive
Streptococcus pyogenes
  Activity: inactive
Candida albicans
  Activity: inactive
Pseudomonas aeruginosa [7]
  Activity: inactive
Escherichia coli [8]
  Activity: inactive
NCI-H460
  Activity: Non-Toxic
Bacillus subtilis
  Activity: inactive
Enterococcus faecalis [9]
  IC50: Not Active

## CC(C)[C@H]1CC[C@@](O)(COC(=O)/C(=C/[C@H]2C3=C(CC[C@@H]2C(C)C)COC3=O)CO)[C@H]2C(=O)OCC(C(=O)O)=C[C@H]12
SW-620
  Activity: Non-Toxic
Escherichia coli [1]
  Activity: inactive
Klebsiella pneumoniae [2]
  Activity: inactive
Klebsiella pneumoniae [3]
  Activity: inactive
Staphylococcus aureus [4]
  Activity: inactive
Pseudomonas aeruginosa [5]
  Activity: inactive
Acinetobacter baumannii
  Activity: inactive
Enterococcus faecalis [10]
  Activity: Active
Staphylococcus aureus [6]
  Activity: inactive
Streptococcus pyogenes
  Activity: inactive
Candida albicans
  Activity: inactive
Pseudomonas aeruginosa [7]
  Activity: inactive
Escherichia coli [8]
  Activity: inactive
NCI-H460
  Activity: Non-Toxic
Bacillus subtilis
  Activity: inactive

## CC(C)[C@H]1CC[C@@]2(OC(=O)/C(=C/[C@H]3C4=C(CC[C@@H]3C(C)C)COC4=O)CO)COC(=O)[C@H]2[C@@H]1/C=C(\CO)C(=O)O
SW-620
  Activity: Non-Toxic
Escherichia coli [1]
  Activity: inactive
Klebsiella pneumoniae [2]
  Activity: inactive
Klebsiella pneumoniae [3]
  Activity: inactive
Staphylococcus aureus [4]
  Activity: inactive
Pseudomonas aeruginosa [5]
  Activity: inactive
Acinetobacter baumannii
  Activity: inactive
Staphylococcus aureus [6]
  Activity: inactive
Streptococcus pyogenes
  Activity: inactive
Candida albicans
  Activity: inactive
Pseudomonas aeruginosa [7]
  Activity: inactive
Escherichia coli [8]
  Activity: inactive
NCI-H460
  Activity: Non-Toxic
Bacillus subtilis
  Activity: inactive

## CC(C)[C@H]1CC[C@@](O)(COC(=O)/C(=C/[C@H]2C3=C(CC[C@@H]2C(C)C)COC3=O)CO)[C@@H](C(=O)O)[C@@H]1/C=C(\CO)C(=O)O
SW-620
  Activity: Non-Toxic
Escherichia coli [1]
  Activity: inactive
Klebsiella pneumoniae [2]
  Activity: inactive
Klebsiella pneumoniae [3]
  Activity: inactive
Staphylococcus aureus [4]
  Activity: inactive
Pseudomonas aeruginosa [5]
  Activity: inactive
Acinetobacter baumannii
  Activity: inactive
Enterococcus faecalis [10]
  Activity: Active
Staphylococcus aureus [6]
  Activity: inactive
Streptococcus pyogenes
  Activity: inactive
Candida albicans
  Activity: inactive
Pseudomonas aeruginosa [7]
  Activity: inactive
Escherichia coli [8]
  Activity: inactive
NCI-H460
  Activity: Non-Toxic
Bacillus subtilis
  Activity: inactive

## CC(C)[C@H]1CC[C@@](O)(COC(=O)C2=C[C@@H]3[C@@H](C(C)C)CC[C@@](O)(COC(=O)/C(=C/[C@H]4C5=C(CC[C@@H]4C(C)C)COC5=O)CO)[C@H]3C(=O)OC2)[C@H]2C(=O)OCC(C(=O)O)=C[C@H]12
SW-620
  Activity: Non-Toxic
Escherichia coli [1]
  Activity: inactive
Klebsiella pneumoniae [2]
  Activity: inactive
Klebsiella pneumoniae [3]
  Activity: inactive
Staphylococcus aureus [4]
  Activity: inactive
Pseudomonas aeruginosa [5]
  Activity: inactive
Acinetobacter baumannii
  Activity: inactive
Enterococcus faecalis [10]
  fold change (FC): 10000
Staphylococcus aureus [6]
  Activity: inactive
Streptococcus pyogenes
  Activity: inactive
Candida albicans
  Activity: inactive
Pseudomonas aeruginosa [7]
  Activity: inactive
Escherichia coli [8]
  Activity: inactive
NCI-H460
  Activity: Non-Toxic
Bacillus subtilis
  Activity: inactive
Enterococcus faecalis [9]; [11]
  IC50: 1600 nM

## CC(C)[C@H]1CC[C@@]2(OC(=O)/C(=C/[C@H]3C=C(CO)CC[C@@H]3C(C)C)CO)COC(=O)[C@H]2[C@@H]1/C=C(\CO)C(=O)O
SW-620
  Activity: Non-Toxic
Escherichia coli [1]
  Activity: inactive
Klebsiella pneumoniae [2]
  Activity: inactive
Klebsiella pneumoniae [3]
  Activity: inactive
Staphylococcus aureus [4]
  Activity: inactive
Pseudomonas aeruginosa [5]
  Activity: inactive
Acinetobacter baumannii
  Activity: inactive
Staphylococcus aureus [6]
  Activity: inactive
Streptococcus pyogenes
  Activity: inactive
Candida albicans
  Activity: inactive
Pseudomonas aeruginosa [7]
  Activity: inactive
Escherichia coli [8]
  Activity: inactive
NCI-H460
  Activity: Non-Toxic
Bacillus subtilis
  Activity: inactive

## CC(C)[C@H]1CC[C@@](O)(COC(=O)/C(=C/[C@H]2C=C(CO)CC[C@@H]2C(C)C)CO)[C@H]2C(=O)OCC(C(=O)O)=C[C@H]12
SW-620
  Activity: Non-Toxic
Escherichia coli [1]
  Activity: inactive
Klebsiella pneumoniae [2]
  Activity: inactive
Klebsiella pneumoniae [3]
  Activity: inactive
Staphylococcus aureus [4]
  Activity: inactive
Pseudomonas aeruginosa [5]
  Activity: inactive
Acinetobacter baumannii
  Activity: inactive
Staphylococcus aureus [6]
  Activity: inactive
Streptococcus pyogenes
  Activity: inactive
Candida albicans
  Activity: inactive
Pseudomonas aeruginosa [7]
  Activity: inactive
Escherichia coli [8]
  Activity: inactive
NCI-H460
  Activity: Non-Toxic
Bacillus subtilis
  Activity: inactive

## CC(C)[C@H]1CC[C@@](O)(COC(=O)/C(=C/[C@@H]2[C@@H](C(C)C)CC[C@@](O)(COC(=O)/C(=C/[C@H]3C4=C(CC[C@@H]3C(C)C)COC4=O)CO)[C@H]2C(=O)O)CO)[C@H]2C(=O)OCC(C(=O)O)=C[C@H]12
SW-620
  Activity: Non-Toxic
Escherichia coli [1]
  Activity: inactive
Klebsiella pneumoniae [2]
  Activity: inactive
Klebsiella pneumoniae [3]
  Activity: inactive
Staphylococcus aureus [4]
  Activity: inactive
Pseudomonas aeruginosa [5]
  Activity: inactive
Acinetobacter baumannii
  Activity: inactive
Enterococcus faecalis [10]
  fold change (FC): 10000
Staphylococcus aureus [6]
  Activity: inactive
Streptococcus pyogenes
  Activity: inactive
Candida albicans
  Activity: inactive
Pseudomonas aeruginosa [7]
  Activity: inactive
Escherichia coli [8]
  Activity: inactive
NCI-H460
  Activity: Non-Toxic
Bacillus subtilis
  Activity: inactive
Enterococcus faecalis [9]; [11]
  IC50: 1000 nM

## CC(C)[C@H]1CC[C@@](O)(COC(=O)C2=C[C@H]3[C@@H](OC2)[C@H](CO)CC[C@@H]3C(C)C)[C@H]2C(=O)OCC(C(=O)O)=C[C@H]12
SW-620
  Activity: Non-Toxic
Escherichia coli [1]
  Activity: inactive
Klebsiella pneumoniae [2]
  Activity: inactive
Klebsiella pneumoniae [3]
  Activity: inactive
Staphylococcus aureus [4]
  Activity: inactive
Pseudomonas aeruginosa [5]
  Activity: inactive
Acinetobacter baumannii
  Activity: inactive
Staphylococcus aureus [6]
  Activity: inactive
Streptococcus pyogenes
  Activity: inactive
Candida albicans
  Activity: inactive
Pseudomonas aeruginosa [7]
  Activity: inactive
Escherichia coli [8]
  Activity: inactive
NCI-H460
  Activity: Non-Toxic
Bacillus subtilis
  Activity: inactive

## CC(C)[C@H]1CC[C@@](O)(COC(=O)C2=C[C@@H]3[C@@H](C(C)C)CC[C@@](O)(COC(=O)/C(=C/[C@H]4C=C(CO)CC[C@@H]4C(C)C)CO)[C@H]3C(=O)OC2)[C@H]2C(=O)OCC(C(=O)O)=C[C@H]12
SW-620
  Activity: Non-Toxic
Escherichia coli [1]
  Activity: inactive
Klebsiella pneumoniae [2]
  Activity: inactive
Klebsiella pneumoniae [3]
  Activity: inactive
Staphylococcus aureus [4]
  Activity: inactive
Pseudomonas aeruginosa [5]
  Activity: inactive
Acinetobacter baumannii
  Activity: inactive
Staphylococcus aureus [6]
  Activity: inactive
Streptococcus pyogenes
  Activity: inactive
Candida albicans
  Activity: inactive
Pseudomonas aeruginosa [7]
  Activity: inactive
Escherichia coli [8]
  Activity: inactive
NCI-H460
  Activity: Non-Toxic
Bacillus subtilis
  Activity: inactive
Enterococcus faecalis [9]
  IC50: Not Active

## CN[C@H](CC(C)C)C(=O)N[C@H]1C(=O)N[C@@H](CC(N)=O)C(=O)N[C@H]2C(=O)N[C@H]3C(=O)N[C@H](C(=O)N[C@H](C(=O)O)c4cc(O)cc(O)c4-c4cc3ccc4O)[C@H](O)c3ccc(c(Cl)c3)Oc3cc2cc(c3O[C@@H]2O[C@H](CO)[C@@H](O)[C@H](O)[C@H]2O[C@H]2C[C@](C)(N)[C@H](O)[C@H](C)O2)Oc2ccc(cc2Cl)[C@H]1O [VANCOMYCIN]
Enterococcus faecalis [10]
  fold change (FC): 100

— ChEMBL document CHEMBL4334511, “Trivirensols: Selectively Bacteriostatic Sesquiterpene Trimers from the Australian Termite Nest-Derived Fungus Trichoderma virens CMB-TN16” (J Nat Prod, 2019)
